The numbers were not newly measured in patent US7098242B2, “Dihydroartemisinin and dihydroartemisitene dimers as anti-cancer and anti-infective agents” (The University of Mississippi, priority 2002, dated 2006), which cites them from elsewhere.

For data set [1], the system named is chloroquine-sensitive and chloroquine-resistant strains of Plasmodium falciparum.

Each structure is given as a SMILES string.

Consider `C[C@@H]1CC[C@H]2[C@@H](C)C(=O)O[C@@H]3O[C@@]4(C)CC[C@@H]1[C@]32OO4` [artemisinin], for which the anti-malarial activity entry in data set [1] is “anti-malarial activity against both chloroquine-sensitive and chloroquine-resistant strains”.
For the compound `C[C@H]1[C@H](OC(=O)CCC(=O)[O-])O[C@@H]2O[C@@]3(C)CC[C@H]4[C@H](C)CC[C@@H]1[C@@]24OO3.[Na+]` [sodium artesunate], the “activity relative to other artemisinin derivatives” value in the data set with malaria is reported as “more activity”.
